Experiments:
Test in all cases: combination Emax (second highest fraction inhibited in the dose matrix, 72 h); higher = more inhibition; extreme values may be limits of the assay
[1] = test system: CTV-1 (T-Lymphoblastic Leukemia)
In short: (§1)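 After 24 hours at 37°C and 5% CO2 in 1536-well plates, cells in DMEM/F12 or RPMI plus 10% FBS received two-drug dose matrices for 72 hours. Viability came from CellTiter-Glo 2.0 luminescence and was scaled as inhibition, anchored at 0 by vehicle wells and at 1 by blank wells. Combination Emax is taken as the second-highest inhibition in the matrix, and Bliss excess as the observed combination effect less EA + EB − EA·EB, with EA and EB the single-agent effects.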

[2] = test system: LS-513 (Colorectal Carcinoma)
In short: as §1

[3] = test system: SW756 (Cervical Carcinoma)
In short: as §1

[4] = test system: DOV13 (Ovarian Carcinoma)
In short: as §1

[5] = test system: KM-H2 (Hodgkin's Lymphoma)
In short: as §1

[6] = test system: IGR-1 (Melanoma)
In short: as §1

[7] = test system: HPAC (Pancreatic Carcinoma)
In short: as §1

[8] = test system: G-292-Clone-A141B1 (Osteosarcoma)
In short: as §1

[9] = test system: COR-L95 (Small Cell Lung Carcinoma)
In short: as §1

[10] = test system: SNU-C5 (Colorectal Carcinoma)
In short: as §1

[11] = test system: KATOIII (Gastric Carcinoma)
In short: as §1

[12] = test system: NCI-H2369 (Mesothelioma)
In short: as §1

[13] = test system: DB (B-Cell Non-Hodgkin's Lymphoma)
In short: as §1

[14] = test system: SW780 (Bladder Carcinoma)
In short: as §1

[15] = test system: NCI-H1793 (Lung Adenocarcinoma)
In short: as §1

[16] = test system: NCI-H2595 (Mesothelioma)
In short: as §1

[17] = test system: MDA-MB-157 (Breast Carcinoma)
In short: as §1

[18] = test system: HT-29 (Colorectal Carcinoma)
In short: as §1

[19] = test system: SW1783 (Low Grade Glioma)
In short: as §1

[20] = test system: CAL-78 (Chondrosarcoma)
In short: as §1

| Structure (SMILES) | combination Emax [5] | combination Emax [1] | combination Emax [2] | combination Emax [3] | combination Emax [4] | combination Emax [6] | combination Emax [7] | combination Emax [8] | combination Emax [9] | combination Emax [10] | combination Emax [11] | combination Emax [12] | combination Emax [13] | combination Emax [14] | combination Emax [15] | combination Emax [16] | combination Emax [17] | combination Emax [18] | combination Emax [19] | combination Emax [20] |
| --- | --- | --- | --- | --- | --- | --- | --- | --- | --- | --- | --- | --- | --- | --- | --- | --- | --- | --- | --- | --- |
| CN(CCO)CC[C@H](CSc1ccccc1)Nc1ccc(S(=O)(=O)NC(=O)c2ccc(N3CCC([C@@H](O)c4ccccc4-c4ccc(Cl)cc4)CC3)cc2)cc1S(=O)(=O)C(F)(F)F [AZD4320] + CN(C)CCCOc1ccc(-c2ccc3ncc4c(c3c2)n(C2CCOCC2)c(=O)n4C)cn1 [AZD0156] (first compound max 1 µM, 7x7, partner max 1 µM) | 0.155 | 0.211 | 0.2 | 0.133 | 0.731 | 0.342 | 0.371 | 0.647 | 1 | 0.225 | 0.0663 | 0.0933 | 0.933 | 0.521 | 0.253 | 0.12 | 0.0946 | 0.169 | 0.52 | – |
| C[C@@H](c1ccc2nccn2c1)n1nnc2ncc(-c3cnn(C)c3)nc21 [Savolitinib] + CN(CC[C@H](CSC1=CC=CC=C1)NC2=C(C=C(C=C2)S(=O)(=O)NC(=O)C3=CC=C(C=C3)N4CCC(CC4)[C@H](C5=CC=CC=C5C6=CC=C(C=C6)Cl)O)S(=O)(=O)C(F)(F)F)CCO [AZD4320] (first compound max 1 µM, 7x7, partner max 1 µM) | 0.146 | 0.455 | – | 0.246 | – | 0.409 | 0.343 | – | – | 0.173 | – | 0.114 | – | 0.393 | 0.168 | – | – | 0.172 | – | 0.457 |
| CN(CCO)CC[C@H](CSc1ccccc1)Nc1ccc(S(=O)(=O)NC(=O)c2ccc(N3CCC([C@@H](O)c4ccccc4-c4ccc(Cl)cc4)CC3)cc2)cc1S(=O)(=O)C(F)(F)F [AZD4320] + C=CCn1c(=O)c2cnc(Nc3ccc(N4CCN(C)CC4)cc3)nc2n1-c1cccc(C(C)(C)O)n1 [AZD1775] (first compound max 1 µM, partner max 1 µM) | 0.979 | – | 0.866 | 0.399 | 0.999 | 0.934 | 1 | 0.559 | 1 | 0.619 | 0.206 | 0.189 | 1 | 0.457 | 0.449 | 0.141 | 0.67 | 0.965 | 0.531 | 0.846 |
| CCc1c2c(nc3ccc(O)cc13)-c1cc3c(c(=O)n1C2)COC(=O)[C@]3(O)CC [SN-38] + O=C(c1cc(Cc2n[nH]c(=O)c3ccccc23)ccc1F)N1CCN(C(=O)C2CC2)CC1 [Olaparib] (first compound max 0.3 µM, 7x7, partner max 10 µM) | – | 1 | 0.665 | 0.766 | 0.939 | 0.634 | 0.246 | 0.179 | 0.85 | – | 0.252 | 0.265 | 0.96 | – | – | 0.28 | 0.725 | 0.936 | 0.862 | – |

Further lines, with some results ahead:

| combination Emax [5] | Structure (SMILES) | combination Emax [1] | combination Emax [2] | combination Emax [3] | combination Emax [4] | combination Emax [6] | combination Emax [7] | combination Emax [8] | combination Emax [9] | combination Emax [10] | combination Emax [11] | combination Emax [12] | combination Emax [13] | combination Emax [14] | combination Emax [15] | combination Emax [16] | combination Emax [17] | combination Emax [18] | combination Emax [19] | combination Emax [20] |
| --- | --- | --- | --- | --- | --- | --- | --- | --- | --- | --- | --- | --- | --- | --- | --- | --- | --- | --- | --- | --- |
| 0.172 | Cc1c2c(nn1C)CSCc1cc(n(C)n1)CSc1cc(c3ccccc3c1)OCCCc1c(C(=O)O)n(C)c3c-2c(Cl)ccc13 [AZD5991] + Cc1cc2ncnn2cc1Nc1ncc2c(n1)n(C1CCOCC1)c(=O)n2C [AZD7648] (first compound max 1 µM, 7x7, partner max 10 µM) | 0.29 | 0.319 | 0.196 | 0.458 | 0.237 | 0.254 | 0.267 | 0.315 | 0.267 | 0.178 | 0.17 | 0.995 | – | 0.41 | 0.291 | 0.708 | 0.223 | 0.256 | 0.782 |
| 0.608 | CC(=O)c1c(C)c2cnc(Nc3ccc(N4CCNCC4)cn3)nc2n(C2CCCC2)c1=O [Palbociclib] + CN(CC[C@H](CSC1=CC=CC=C1)NC2=C(C=C(C=C2)S(=O)(=O)NC(=O)C3=CC=C(C=C3)N4CCC(CC4)[C@H](C5=CC=CC=C5C6=CC=C(C=C6)Cl)O)S(=O)(=O)C(F)(F)F)CCO [AZD4320] (first compound max 10 µM, 7x7, partner max 1 µM) | 0.94 | – | 0.293 | – | 0.976 | 0.497 | – | – | 0.388 | – | 0.259 | – | 0.395 | 0.337 | – | – | 0.498 | – | 0.709 |
| 0.551 | COc1nnc2ccc(N3CCC(c4ccc(OCCN5CCN(C)C(=O)[C@H]5C)cc4)CC3)nn12 [AZD5153] + CN(CC[C@H](CSC1=CC=CC=C1)NC2=C(C=C(C=C2)S(=O)(=O)NC(=O)C3=CC=C(C=C3)N4CCC(CC4)[C@H](C5=CC=CC=C5C6=CC=C(C=C6)Cl)O)S(=O)(=O)C(F)(F)F)CCO [AZD4320] (first compound max 1 µM, 7x7, partner max 1 µM) | 0.933 | – | 0.34 | – | 0.909 | 0.713 | – | – | 0.569 | – | 0.299 | – | 0.369 | 0.323 | – | – | 0.774 | – | 0.8 |

— the supplement of paper PMC11061612
